Test results reported in patent US20090142285A1, “COSMETIC COMPOSITION COMPRISING ASCORBIC ACID 2-GLUCOSIDE AND ERGOTHIONEINE” (LVMH RECHERCHE, priority 2007, published 2009).
One block for each compound: values may come before it.

How the values were obtained:
[1] = tested on: glycosylase type DNA repair enzymes; experiment: OLISA biochip: excision of modified DNA bases by nuclear extracts of treated fibroblasts, donor (FHN52); type: cell-based, human; conditions: for digestion activity (elimination of modified DNA bases formed as a result of oxidative stress): overall conclusion
Procedure: (§1) Fibroblasts were obtained from a breast sample from a person and from photo-protected skin of a person.
(§2) Fibroblasts from each of the donors, […] (FHN52) and […] (FHN 1C), were cultured and treated in the exponential growth phase.
(§3) Fibroblasts were treated with ergothioneine (AGI Dermatics, Newport, N.Y., USA) at a non-cytotoxic concentration of 4 mM for 24 hours.
(§4) Treatment of fibroblasts with ascorbic acid 2-glucoside (Siber Hegner, Miribel, France) was carried out at a non-cytotoxic concentration of 50 μM of […] for 24 hours.
(§5) Nuclear extracts were prepared in order to obtain protein solutions containing the repair enzymes of interest.
(§6) Extracts were used at a final concentration of 10 μg/ml.
(§7) OLISA technology (Bonnet-Duquennoy et al., Eur. J. Dermatol., 16, 2, 136-140 2006) was used to measure the excision of nucleic bases modified by glycosylase type DNA repair enzymes.
(§8) The principle (FIG. 1) is described in the publication entitled: “An oligonucleotide micro-array for the monitoring of repair enzyme activity toward different DNA damage”, Sauvaigo et al., Annal. Biochem. (2004); 333: 182-192.
(§9) Labelled oligonucleotide probes immobilised on the support generate synthetic double strand DNA containing in their base sequence, the altered base whose repair activity by cellular enzymes is being studied.
(§10) The probes were determined in order to study enzyme repair typical lesions resulting from exposure to oxidative stress (FIG. 2).
(§11) An OLISA format chip (96-well plate; bioMérieux, Grenoble, France) with 17 spots was functionalised by oligonucleotides containing the various lesions of interest (LAN synthesis, CEA, Grenoble, France).
(§12) Functionalised wells were incubated at 30° C. in the presence of the extract of interest.
(§13) The duration of digestion chosen is 45 minutes for the experiments. Extracts were deposited in four wells.
(§14) Thus for each lesion, the percentage of lesions remaining after the extract activity is determined by calculating the ratio of “extract” well signals with respect to control wells which represent 100% lesions (calculation carried out using the mean of the 8 values obtained).
(§15) Similarly, to determine the effect of each of the 2 active ingredients on specific digestion of extracts, data obtained for each of the lesions were normalised by data obtained with the control oligonucleotide normalised by the control.

[2] = tested on: glycosylase type DNA repair enzymes; experiment: OLISA biochip: excision of modified DNA bases by nuclear extracts of treated fibroblasts, donor (FHN 1C); type: cell-based, human
Procedure: as §1, §2, §3, §4, §5, §6, §7, §8, §9, §10, §11, §12, §13, §14, §15

[3] = tested on: non-specific digestive activity (nuclease) of cell extracts; experiment: OLISA biochip: non-specific digestion of control oligonucleotide (no lesion) by extracts of treated fibroblasts; type: cell-based, human; conditions: immediately after treatment, 2 donors
Procedure: as §2, §3, §4, §5, §7
For this study, 2 spots per lesion of interest or control oligonucleotide (without lesion) and 3 spots used to direct the readings were used.
as §12, §13
In order to determine the effect of ergothioneine, on the one hand, and of ascorbic acid 2-glucoside, on the other, on non-specific digestion of extracts, data obtained with the control oligonucleotide normalised by the control were used.
In the same way, an analysis was carried out for each of the 2 donors tested. […]

[4] = tested on: Fibroblasts; experiment: Cytotoxicity of the treatment concentration on fibroblasts; type: cell-based, human; conditions: 4 mM for 24 hours
Procedure: as §3, §4

[5] = tested on: human cell lines; conditions: cited from earlier work
[6] = tested on: keratinocytes; conditions: cited from earlier work
[7] = tested on: mouse skin cells placed in culture; conditions: cited from earlier work
[8] = ergothioneine 4 mM 24 hours, rinsed, recultured without ergothioneine a further 24 hours, donor (FHN 52)
[9] = ergothioneine 4 mM 24 hours, donor (FHN 52), immediately after treatment
[10] = ergothioneine 4 mM 24 hours, immediately after treatment
[11] = ascorbic acid 2-glucoside 50 μM, 24 hours after treatment, donor (FHN 52)
[12] = ascorbic acid 2-glucoside 50 μM, 24 hours after treatment

Structure (SMILES): C[N+](C)(C)[C@@H](Cc1c[nH]c(=S)[nH]1)C(=O)[O-] [ergothioneine]
residual percentage of 8-oxo-dG lesion [1, 8]: decreases significantly
residual percentage of HmdU lesion [1, 8]: decreases significantly
residual percentage of ethenoda lesion [1, 8]: decreases significantly
residual percentage of formylamine lesion [1, 8]: decreases significantly
residual percentage of inosine lesion [1, 8]: decreases significantly
residual percentage of formylamine lesion [1, 9]: decreases significantly
residual percentage of inosine lesion [1, 9]: decreases significantly
residual percentage of uracil lesion [1, 9]: decreases significantly
residual percentage of 8 oxodG lesion ([1]; ergothioneine 4 mM 24 hours, donor (FHN 52), immediately after treatment, normalised to control oligonucleotide): decreases significantly
digestion activity (elimination of modified DNA bases formed as a result of oxidative stress) ([1]; ergothioneine 4 mM, fibroblast extracts): significantly increases
residual percentage of formylamine lesion [2, 10]: decreases significantly
residual percentage of uracil lesion [2, 10]: decreases significantly
effect on the control oligonucleotide (non-specific digestion) ([3]; ergothioneine 4 mM for 24 hours): no significant effect
cytotoxicity at treatment concentration [4]: non-cytotoxic
DNA oxidation caused by peroxinitrites [5]: inhibits
cell death triggered by hydrogen peroxide [5]: inhibits

residual percentage of 8-oxo-dG lesion [1, 11]: decreases significantly
residual percentage of formylamine lesion [1, 11]: decreases significantly
residual percentage of inosine lesion [1, 11]: decreases significantly
residual percentage of uracil lesion [1, 11]: decreases significantly
digestion activity (elimination of modified DNA bases formed as a result of oxidative stress) ([1]; ascorbic acid 2-glucoside 50 μM, fibroblast extracts of donor): significantly increases
residual percentage of 8 oxodG lesion [2, 12]: decreases significantly
residual percentage of formylamine lesion [2, 12]: decreases significantly
residual percentage of inosine lesion [2, 12]: decreases significantly
residual percentage of uracil lesion [2, 12]: decreases significantly
Structure (SMILES): O=C1O[C@H]([C@@H](O)CO)C(O)=C1O[C@H]1O[C@H](CO)[C@@H](O)[C@H](O)[C@H]1O [ascorbic acid 2-glucoside, 2-O-α-D-Glucopyranosyl L-ascorbic acid]
effect on the control oligonucleotide (non-specific digestion) ([3]; ascorbic acid 2-glucoside 50 μM for 24 hours): did not have a significant effect
protection against cytotoxicity caused by UVB [6]: effective agent in protecting keratinocytes
cell DNA fragmentation after damage caused by UVA or UVB [7]: reduction in the cell DNA fragmentation
